Where two headings read alike, the source gives them in different places.
Biological target: T1, PI3Kδ (PI3 Kd) (Homo sapiens, UniProt O00329)
T1 construct: purchased Millipore
Test: PI3K HTRF enzymatic inhibition assay (cell-free), PI3Kd
Format: biochemical
Procedure: PI3K α, β, δ and γ Enzymatic Inhibition Assays
Compounds were screened for their ability to inhibit PI3Kα (PI3Kα), PI3Kβ (PI3 Kb), PI3Kδ (PI3 Kd) and PI3Kγ (PI3 Kg) using a cell-free based PI3K HTRF™ assay (Millipore, ref. #33-017) All reagents to perform the reactions were prepared according to the manufacturer protocol. All PI3K enzymes were recombinant and were purchased at Millipore.
These concentrations were final in the assay. • 3) A reservoir plate containing Adenosine TriPhosphate (ATP) diluted in the Millipore kit buffer was prepared for each isoform. […] Incubation was done for 8 minutes (for all four isoforms) then the reaction was stopped by addition of the Stop solution. The Detection solution was added. These solutions were prepared previously according to the kit specifications.

T1 sequence (O00329 whole entry): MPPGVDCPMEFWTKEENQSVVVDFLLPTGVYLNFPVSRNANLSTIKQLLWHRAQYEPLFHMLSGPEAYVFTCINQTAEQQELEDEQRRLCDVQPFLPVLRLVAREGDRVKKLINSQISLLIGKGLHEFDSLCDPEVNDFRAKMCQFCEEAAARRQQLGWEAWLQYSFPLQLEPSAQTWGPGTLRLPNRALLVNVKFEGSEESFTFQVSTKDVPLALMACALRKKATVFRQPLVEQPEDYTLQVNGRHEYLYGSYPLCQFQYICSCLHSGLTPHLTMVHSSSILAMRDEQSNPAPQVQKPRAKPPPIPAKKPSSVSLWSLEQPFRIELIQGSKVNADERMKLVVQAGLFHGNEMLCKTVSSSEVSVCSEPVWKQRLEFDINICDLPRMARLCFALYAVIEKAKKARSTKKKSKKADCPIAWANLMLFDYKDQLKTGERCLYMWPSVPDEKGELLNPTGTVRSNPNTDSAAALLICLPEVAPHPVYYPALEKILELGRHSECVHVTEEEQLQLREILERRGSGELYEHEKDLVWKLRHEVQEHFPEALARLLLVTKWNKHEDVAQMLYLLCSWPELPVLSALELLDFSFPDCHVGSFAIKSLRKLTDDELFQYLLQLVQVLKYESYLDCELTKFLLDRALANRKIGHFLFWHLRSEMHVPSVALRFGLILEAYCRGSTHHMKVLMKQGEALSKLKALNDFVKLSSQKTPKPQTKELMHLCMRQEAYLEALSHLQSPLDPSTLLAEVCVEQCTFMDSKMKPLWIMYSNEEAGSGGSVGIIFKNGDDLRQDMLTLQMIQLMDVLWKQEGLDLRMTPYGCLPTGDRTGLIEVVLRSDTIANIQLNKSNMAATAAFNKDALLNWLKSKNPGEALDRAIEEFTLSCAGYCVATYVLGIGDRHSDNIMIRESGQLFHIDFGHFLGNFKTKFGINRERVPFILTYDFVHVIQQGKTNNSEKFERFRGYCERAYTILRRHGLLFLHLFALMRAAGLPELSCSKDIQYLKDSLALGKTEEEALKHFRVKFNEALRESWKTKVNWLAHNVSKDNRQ
T1 sequence (P27986 whole entry partner): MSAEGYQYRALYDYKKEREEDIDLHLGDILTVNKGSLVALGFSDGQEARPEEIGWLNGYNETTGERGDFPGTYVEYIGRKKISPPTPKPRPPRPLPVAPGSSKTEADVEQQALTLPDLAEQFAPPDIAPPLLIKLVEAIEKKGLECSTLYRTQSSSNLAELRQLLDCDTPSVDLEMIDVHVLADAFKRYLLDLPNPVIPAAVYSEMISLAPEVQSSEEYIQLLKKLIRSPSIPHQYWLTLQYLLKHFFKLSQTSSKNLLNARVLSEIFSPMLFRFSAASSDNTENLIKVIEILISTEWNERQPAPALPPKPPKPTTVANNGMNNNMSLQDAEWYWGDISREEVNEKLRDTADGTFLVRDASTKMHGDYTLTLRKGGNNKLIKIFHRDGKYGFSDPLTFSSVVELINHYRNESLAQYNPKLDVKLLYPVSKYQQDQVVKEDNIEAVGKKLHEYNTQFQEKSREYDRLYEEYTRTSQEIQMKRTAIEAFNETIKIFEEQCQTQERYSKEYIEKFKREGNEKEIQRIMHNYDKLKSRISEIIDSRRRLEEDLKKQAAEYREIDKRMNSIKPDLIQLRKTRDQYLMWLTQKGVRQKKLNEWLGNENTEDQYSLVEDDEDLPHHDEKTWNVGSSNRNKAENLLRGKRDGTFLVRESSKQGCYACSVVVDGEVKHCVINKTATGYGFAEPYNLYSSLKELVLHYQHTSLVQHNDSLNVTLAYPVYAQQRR

Structure (SMILES)	IC50	IC50 (recombinant PI3 Kd 0.60 nM, PIP2 2 μM, ATP 20 μM, 8 min incubation)
C[C@H](Nc1ncnc(N)c1C#N)c1nn2ccc(Br)c2c(=O)[nH]1 [Example 142, (S)-4-Amino-6-(1-(5-bromo-4-oxo-3,4-dihydropyrrolo[1,2-f][1,2,4]triazin-2-yl)ethylamino)pyrimidine-5-carbonitrile]	0.005 µM	–
CC[C@H](Nc1ncnc2[nH]cnc12)c1nn2cccc2c(=O)n1-c1ccccc1 [Example 15, (S)-2-(1-(9H-Purin-6-ylamino)propyl)-3-phenylpyrrolo[1,2-f][1,2,4]triazin-4(3H)-one]	0.018 µM	–
Cc1ccccc1-n1c(CNc2ncnc(N)c2C#N)nn2cccc2c1=O [Example 158, 4-Amino-6-((4-oxo-3-o-tolyl-3,4-dihydropyrrolo[1,2-f][1,2,4]triazin-2-yl)methylamino)pyrimidine-5-carbonitrile]	0.043 µM	–
Cc1ccc2c(=O)n(-c3ccccc3)c([C@H](C)Nc3ncnc(N)c3C#N)nn12 [Example 71, (S)-4-Amino-6-(1-(7-methyl-4-oxo-3-phenyl-3,4-dihydropyrrolo[1,2-f][1,2,4]triazin-2-yl)ethylamino)pyrimidine-5-carbonitrile]	0.009 µM	–
CCCNC(=O)c1ccn2nc([C@H](C)Nc3ncnc(N)c3C#N)n(-c3ccccc3)c(=O)c12 [Example 152, (S)-2-(1-(6-Amino-5-cyanopyrimidin-4-ylamino)ethyl)-4-oxo-3-phenyl-N-propyl-3,4-dihydropyrrolo[1,2-f][1,2,4]triazine-5-carboxamide]	0.747 µM	–
Cc1ccccc1-n1c(Cn2cnc3c(N)ncnc32)nn2ccnc2c1=O [Example 31, 2-((6-amino-9H-purin-9-yl)methyl)-3-o-tolylimidazo[1,2-f][1,2,4]triazin-4(3H)-one]	6.57 µM	–
N#Cc1c(N)ncnc1N[C@@H](CO)c1nn2cccc2c(=O)n1-c1cc(F)cc(F)c1 [Example 157, (R)-4-Amino-6-(1-(3-(3,5-difluorophenyl)-4-oxo-3,4-dihydropyrrolo[1,2-f][1,2,4]triazin-2-yl)-2-hydroxyethylamino)pyrimidine-5-carbonitrile]	0.066 µM	–
O=c1c2cccn2nc([C@H](CO)Nc2ncnc3[nH]cnc23)n1-c1ccccc1 [Example 62, (R)-2-(1-(9H-Purin-6-ylamino)-2-hydroxyethyl)-3-phenylpyrrolo[1,2-f][1,2,4]triazin-4(3H)-one]	0.073 µM	–

Now from value to compound:

IC50	IC50 (recombinant PI3 Kd 0.60 nM, PIP2 2 μM, ATP 20 μM, 8 min incubation)	Structure (SMILES)
–	0.119 µM	Cc1ccccc1-n1c(CSc2ncnc3[nH]cnc23)nn2ccc(C)c2c1=O [Example 11, 2-((9H-Purin-6-ylthio)methyl)-5-methyl-3-o-tolylpyrrolo[1,2-f][1,2,4]triazin-4(3H)-one]
0.12 µM	–	Cc1ccccc1-n1c(Cn2cnc3c(N)ncnc32)nn2ccc(Cl)c2c1=O [Example 1, 2-((6-Amino-9H-purin-9-yl)methyl)-5-chloro-3-o-tolylpyrrolo[1,2-f][1,2,4]triazin-4(3H)-one]
0.008 µM	–	C[C@H](Nc1ncnc(N)c1C#N)c1nn2cccc2c(=O)n1C1CCC1 [Example 138, (S)-4-Amino-6-(1-(3-cyclobutyl-4-oxo-3,4-dihydropyrrolo[1,2-f][1,2,4]triazin-2-yl)ethylamino)pyrimidine-5-carbonitrile]
0.347 µM	–	Cc1ccccc1-n1c(Cn2cnc3c(N)ncnc32)nn2ccc(C(F)(F)F)c2c1=O [Example 25, 2-((6-Amino-9H-purin-9-yl)methyl)-3-o-tolyl-5-(trifluoromethyl)pyrrolo[1,2-f][1,2,4]triazin-4(3H)-one]

From patent US9340547B2, “Pyrrolotriazinone derivatives as inhibitors P13K” (Almirall, S.A., priority 2011, dated 2016)
